Test results: patent US20170050936A1, “CERTAIN CHEMICAL ENTITIES, COMPOSITIONS, AND METHODS” (NEUPHARMA, INC., priority 2013, published 2017)

Assays:
[1] = target: T1, EGFR (ErbB1) (Homo sapiens, UniProt P00533); experiment: Z'-LYTE kinase inhibition assay, EGFR; assay type: biochemical; conditions: read-out: IC50 against EGFR
T1 construct: purchased Invitrogen
Description: Inhibitory activities of compounds against BTK, EGFR and EGFR mutants (EGFR L858R, EGFR T790M, EGFR L858R/T790M), FGFR1, FGFR2, JAK2, JAK3 and KDR were measured by Invitrogen using Z'-LYTE® Method as briefly described in the following. Test Compounds are screened in 1% DMSO (final) in the well. For 10 point titrations, 3-fold serial dilutions are conducted from the starting concentration. All ATP Solutions are diluted to a 4× working concentration in Kinase Buffer (50 mM HEPES pH 7.5, 0.01% BRIJ-35, 10 mM MgCl2, 1 mM EGTA). Peptide/Kinase Mixtures are diluted to a 2× working concentration in the appropriate Kinase Buffers as described below. (i) Peptide/Kinase Mixtures for measurement of EGFR (ErbB1): The 2× EGFR (ErbB1)/[…] mixture is prepared in 50 mM HEPES pH 7.5, 0.01% BRIJ-35, 10 mM MgCl2, 4 mM MnCl2, 1 mM EGTA, 2 mM DTT. The final 10 μL Kinase Reaction consists of 1.1-5.25 ng EGFR (ErbB1) and 2 μM […] in 50 mM HEPES pH 7.5, 0.01% BRIJ-35, 10 mM MgCl2, 2 mM MnCl2, 1 mM EGTA, 1 mM DTT. After the 1 hour Kinase Reaction incubation, 5 μL of a 1:64 dilution of Development Reagent B is added. Reaction starts by 30-second shaking of mixture consisting of 2.5 μL 4× test compound, 5 μL 2× kinase reaction mixture and 2.5 μL 4× ATP Solution on Bar-coded Corning, low volume NBS, black 384-well plate (Corning Cat. #3676). Then the mixture is incubated for 60-minute at room temperature for the kinase reaction, followed by addition of 5 μL of a 1:1024 dilution of development reagent A and 30-second plate shake. The mixture is then incubated for another 60-minute at room temperature for development reaction. Finally fluorescence is read by plate reader. To determine IC50 of a compound against EGFR, EGFR mutant and other kinases, a series of concentrations of the compound were tested for the inhibition.

[2] = target: T2, KDR (VEGFR2) (Homo sapiens, UniProt P35968); experiment: Z'-LYTE kinase inhibition assay, KDR; assay type: biochemical; conditions: read-out: IC50 against KDR
T2 construct: purchased Invitrogen
Description: (§1) Inhibitory activities of compounds against BTK, EGFR and EGFR mutants (EGFR L858R, EGFR T790M, EGFR L858R/T790M), FGFR1, FGFR2, JAK2, JAK3 and KDR were measured by Invitrogen using Z′-LYTE® Method as briefly described in the following.
(§2) Test Compounds are screened in 1% DMSO (final) in the well. For 10 point titrations, 3-fold serial dilutions are conducted from the starting concentration. All ATP Solutions are diluted to a 4× working concentration in Kinase Buffer (50 mM HEPES pH 7.5, 0.01% BRIJ-35, 10 mM MgCl2, 1 mM EGTA). Peptide/Kinase Mixtures are diluted to a 2× working concentration in the appropriate Kinase Buffers as described below.
(v) Peptide/Kinase Mixtures for measurement of KDR (VEGFR2):
The 2× KDR (VEGFR2)/Tyr 01 mixture is prepared in 50 mM HEPES pH 7.5, 0.01% BRIJ-35, 10 mM MgCl2, 1 mM EGTA. The final 10 μL Kinase Reaction consists of 0.5-11.7 ng KDR (VEGFR2) and 2 μM Tyr Olin 50 mM HEPES pH 7.5, 0.01% BRIJ-35, 10 mM MgCl2, 1 mM EGTA. After the 1 hour Kinase Reaction incubation, 5 μL of a 1:256 dilution of Development Reagent B is added.
(§3) Reaction starts by 30-second shaking of mixture consisting of 2.5 μL 4× test compound, 5 μL 2× kinase reaction mixture and 2.5 μL 4× ATP Solution on Bar-coded Corning, low volume NBS, black 384-well plate (Corning Cat. #3676). Then the mixture is incubated for 60-minute at room temperature for the kinase reaction, followed by addition of 5 μL of a 1:1024 dilution of development reagent A and 30-second plate shake. The mixture is then incubated for another 60-minute at room temperature for development reaction. Finally fluorescence is read by plate reader.
(§4) To determine IC50 of a compound against EGFR, EGFR mutant and other kinases, a series of concentrations of the compound were tested for the inhibition. […] The scale utilized in Table 4 is as follows: +++ less than 100 nM, ++100-500 nM and + greater than 500 nM.

[3] = target: T3, FGFR1 (Homo sapiens, UniProt P11362); experiment: Z'-LYTE kinase inhibition assay, FGFR1; assay type: biochemical; conditions: read-out: IC50 against FGFR1
T3 construct: purchased Invitrogen
Description: as §1, §2
(v) Peptide/Kinase Mixtures for measurement of FGFR1:
(§5) The 2× FGFR1/Tyr 04 mixture is prepared in 50 mM HEPES pH 7.5, 0.01% BRIJ-35, 10 mM MgCl2, 4 mM MnCl2, 1 mM EGTA, 2 mM DTT. The final 10 μL Kinase Reaction consists of 0.41-3.5 ng FGFR1 and 2 μM Tyr 04 in 50 mM HEPES pH 7.5, 0.01% BRIJ-35, 10 mM MgCl2, 2 mM MnCl2, 1 mM EGTA, 1 mM DTT. After the 1 hour Kinase Reaction incubation, 5 μL of a 1:64 dilution of Development Reagent B is added.
as §3, §4

[4] = target: T4, FGFR2 (Homo sapiens, UniProt P21802); experiment: Z'-LYTE kinase inhibition assay, FGFR2; assay type: biochemical; conditions: read-out: IC50 against FGFR2
T4 construct: purchased Invitrogen
Description: as §1, §2
(v) Peptide/Kinase Mixtures for measurement of FGFR2:
as §5, with “FGFR2/Tyr” for “FGFR1/Tyr”, “0.19-2.36” for “0.41-3.5”, “FGFR2” for “FGFR1”
as §3, §4

[5] = tested on: H1299 cells; experiment: Inhibition of cancer cell growth, MTT assay, H1299; conditions: Homo sapiens, NCI-H1299, 72 h, read-out: IC50 in H1299 cells
Description: Inhibition of cell growth by compounds was measured using MTT assay (Mosmann, T., Journal of Immunological Methods, 1983, 65, 55-63). Tumor cell lines were purchased from ATCC (American Type Culture Collection, Manassas, Va.). All cell lines were maintained in RPMI 1640 (Hyclone) supplemented with 10% fetal bovine serum (FBS, Hyclone), glutamine (2 mM, Hyclone), and antibiotics (penicillin 100 U/mL and streptomycin 50 μg/mL) at 37° C. in a humidified atmosphere of 5% CO2 in air. Taxol (as a positive control, Sigma) and compounds were dissolved in DMSO (Sigma), and the final concentration of DMSO in the medium was 1%. Tumor cells were plated in 96-well plates at densities of about 4000 cells/well of a 96-well plate and allowed to adhere/grow for 24 h. They were then treated with various concentrations of drug for 72 h. […] The number of cells remaining after 72 h was compared to the number of viable cells at the time of compound addition by measuring the absorbance at 570 nm, allowing for the calculation of growth inhibition.
All concentrations of compounds were tested in triplicate and controls were averaged over 4 wells. IC50 was calculated by plotting the concentration of compound vs the percentage of inhibition in treated wells using GraphPad Prism 5. […]

T2 sequence (P35968 20-1356): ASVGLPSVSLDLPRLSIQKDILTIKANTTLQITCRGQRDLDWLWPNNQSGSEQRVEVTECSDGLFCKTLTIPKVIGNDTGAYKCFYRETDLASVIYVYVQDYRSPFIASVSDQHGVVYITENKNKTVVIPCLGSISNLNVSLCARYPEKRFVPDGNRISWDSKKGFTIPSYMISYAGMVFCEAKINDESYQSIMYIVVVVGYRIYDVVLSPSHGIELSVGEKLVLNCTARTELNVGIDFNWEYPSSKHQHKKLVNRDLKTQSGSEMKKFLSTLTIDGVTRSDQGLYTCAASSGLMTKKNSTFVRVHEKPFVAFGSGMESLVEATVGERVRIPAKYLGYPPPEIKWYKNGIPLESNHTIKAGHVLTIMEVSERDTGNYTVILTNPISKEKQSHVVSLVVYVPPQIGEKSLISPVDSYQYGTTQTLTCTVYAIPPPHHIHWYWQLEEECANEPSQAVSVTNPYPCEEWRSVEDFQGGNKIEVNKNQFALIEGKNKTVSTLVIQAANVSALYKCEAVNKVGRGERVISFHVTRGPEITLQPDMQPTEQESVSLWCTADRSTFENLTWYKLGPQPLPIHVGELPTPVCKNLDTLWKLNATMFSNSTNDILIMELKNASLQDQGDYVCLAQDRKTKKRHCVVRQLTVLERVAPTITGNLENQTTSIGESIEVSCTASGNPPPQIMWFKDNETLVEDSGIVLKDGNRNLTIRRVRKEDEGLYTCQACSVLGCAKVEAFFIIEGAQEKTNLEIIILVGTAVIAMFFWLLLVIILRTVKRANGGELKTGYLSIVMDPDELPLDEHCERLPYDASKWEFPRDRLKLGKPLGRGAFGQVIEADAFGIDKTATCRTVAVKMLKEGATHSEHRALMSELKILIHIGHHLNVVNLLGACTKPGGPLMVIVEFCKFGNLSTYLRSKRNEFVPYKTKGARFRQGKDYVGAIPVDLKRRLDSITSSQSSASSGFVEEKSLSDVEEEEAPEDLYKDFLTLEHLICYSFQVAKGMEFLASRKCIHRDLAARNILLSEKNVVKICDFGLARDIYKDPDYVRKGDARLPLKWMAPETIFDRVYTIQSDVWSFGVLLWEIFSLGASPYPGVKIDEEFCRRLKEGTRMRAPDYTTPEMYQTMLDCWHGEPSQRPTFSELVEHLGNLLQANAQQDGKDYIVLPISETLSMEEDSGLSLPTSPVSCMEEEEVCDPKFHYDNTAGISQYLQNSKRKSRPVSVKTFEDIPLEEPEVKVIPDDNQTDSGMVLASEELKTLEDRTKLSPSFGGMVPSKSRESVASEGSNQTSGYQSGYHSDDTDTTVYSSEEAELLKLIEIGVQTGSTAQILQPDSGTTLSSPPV
T3 sequence (P11362 22-822): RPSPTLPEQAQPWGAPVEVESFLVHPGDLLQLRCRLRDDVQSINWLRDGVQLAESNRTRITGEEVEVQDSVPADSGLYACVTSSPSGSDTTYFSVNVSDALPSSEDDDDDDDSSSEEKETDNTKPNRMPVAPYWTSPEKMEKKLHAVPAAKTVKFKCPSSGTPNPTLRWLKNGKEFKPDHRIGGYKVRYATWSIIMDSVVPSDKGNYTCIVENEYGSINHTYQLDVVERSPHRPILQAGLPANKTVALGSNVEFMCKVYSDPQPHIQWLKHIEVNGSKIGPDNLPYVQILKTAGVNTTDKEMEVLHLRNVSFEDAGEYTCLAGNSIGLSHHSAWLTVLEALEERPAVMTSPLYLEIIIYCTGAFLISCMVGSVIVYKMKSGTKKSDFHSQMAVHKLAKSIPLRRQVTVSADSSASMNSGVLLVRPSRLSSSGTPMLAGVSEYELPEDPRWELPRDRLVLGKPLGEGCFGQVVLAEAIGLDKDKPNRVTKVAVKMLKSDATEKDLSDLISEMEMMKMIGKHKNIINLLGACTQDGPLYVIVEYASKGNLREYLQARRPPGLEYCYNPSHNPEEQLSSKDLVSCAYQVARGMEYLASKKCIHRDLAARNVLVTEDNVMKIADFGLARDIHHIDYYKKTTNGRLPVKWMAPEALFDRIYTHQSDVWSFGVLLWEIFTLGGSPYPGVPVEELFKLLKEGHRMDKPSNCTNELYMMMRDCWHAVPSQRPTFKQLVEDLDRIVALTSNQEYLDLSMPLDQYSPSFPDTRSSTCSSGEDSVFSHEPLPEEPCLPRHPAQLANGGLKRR
T4 sequence (P21802 22-821): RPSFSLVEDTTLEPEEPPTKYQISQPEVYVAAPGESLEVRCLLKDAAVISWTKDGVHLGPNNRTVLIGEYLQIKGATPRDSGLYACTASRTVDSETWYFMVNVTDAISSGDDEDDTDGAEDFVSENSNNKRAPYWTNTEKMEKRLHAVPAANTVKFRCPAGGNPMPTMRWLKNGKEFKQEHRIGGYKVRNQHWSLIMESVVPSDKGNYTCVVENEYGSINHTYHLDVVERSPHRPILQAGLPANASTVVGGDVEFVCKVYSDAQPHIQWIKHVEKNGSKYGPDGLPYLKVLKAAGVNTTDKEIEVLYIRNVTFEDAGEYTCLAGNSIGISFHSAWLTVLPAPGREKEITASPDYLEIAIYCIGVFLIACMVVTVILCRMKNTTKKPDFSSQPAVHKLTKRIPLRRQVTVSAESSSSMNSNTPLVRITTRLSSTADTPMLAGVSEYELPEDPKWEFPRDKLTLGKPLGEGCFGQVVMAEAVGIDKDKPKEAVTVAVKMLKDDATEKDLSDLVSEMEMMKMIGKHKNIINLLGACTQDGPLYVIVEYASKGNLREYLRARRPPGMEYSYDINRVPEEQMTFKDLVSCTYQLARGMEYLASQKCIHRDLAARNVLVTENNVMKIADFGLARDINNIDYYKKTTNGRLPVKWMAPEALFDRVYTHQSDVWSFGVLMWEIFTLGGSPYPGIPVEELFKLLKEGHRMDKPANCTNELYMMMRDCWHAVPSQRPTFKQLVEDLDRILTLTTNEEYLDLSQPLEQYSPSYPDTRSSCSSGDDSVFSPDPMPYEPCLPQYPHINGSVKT
T1 sequence (P00533 25-1210): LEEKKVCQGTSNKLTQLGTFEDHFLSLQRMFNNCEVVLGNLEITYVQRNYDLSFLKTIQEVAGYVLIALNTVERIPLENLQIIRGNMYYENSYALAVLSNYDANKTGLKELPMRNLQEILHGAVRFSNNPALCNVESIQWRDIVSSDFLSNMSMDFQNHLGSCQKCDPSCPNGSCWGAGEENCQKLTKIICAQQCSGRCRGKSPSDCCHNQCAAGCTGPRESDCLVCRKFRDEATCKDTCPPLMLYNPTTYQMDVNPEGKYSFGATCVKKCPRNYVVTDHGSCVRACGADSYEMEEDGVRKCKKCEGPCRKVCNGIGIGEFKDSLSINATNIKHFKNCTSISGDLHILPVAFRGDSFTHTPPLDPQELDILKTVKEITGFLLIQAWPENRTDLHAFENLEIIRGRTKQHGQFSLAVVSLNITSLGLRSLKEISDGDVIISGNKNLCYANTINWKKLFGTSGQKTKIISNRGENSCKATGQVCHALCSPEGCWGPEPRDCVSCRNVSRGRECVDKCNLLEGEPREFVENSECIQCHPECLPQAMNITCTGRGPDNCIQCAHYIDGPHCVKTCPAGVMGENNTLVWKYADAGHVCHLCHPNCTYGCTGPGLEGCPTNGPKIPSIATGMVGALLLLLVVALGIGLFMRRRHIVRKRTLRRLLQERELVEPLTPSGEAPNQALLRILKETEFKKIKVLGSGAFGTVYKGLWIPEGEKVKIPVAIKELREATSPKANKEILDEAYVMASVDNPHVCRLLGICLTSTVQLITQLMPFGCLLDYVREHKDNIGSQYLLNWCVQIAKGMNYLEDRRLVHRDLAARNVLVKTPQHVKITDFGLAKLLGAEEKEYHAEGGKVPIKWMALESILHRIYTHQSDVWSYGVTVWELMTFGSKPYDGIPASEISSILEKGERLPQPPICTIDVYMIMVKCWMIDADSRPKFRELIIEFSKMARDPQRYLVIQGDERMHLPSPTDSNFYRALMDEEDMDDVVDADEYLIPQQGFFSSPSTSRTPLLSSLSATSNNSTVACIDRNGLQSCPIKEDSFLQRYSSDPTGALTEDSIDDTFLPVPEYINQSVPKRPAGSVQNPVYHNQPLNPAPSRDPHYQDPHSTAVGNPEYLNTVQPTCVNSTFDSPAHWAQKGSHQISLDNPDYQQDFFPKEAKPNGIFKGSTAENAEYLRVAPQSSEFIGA

## C=CC(=O)Nc1cccc(-c2cccc3cnc(Nc4ccc(OCCO)cc4)nc23)c1 [Example C108, N-(3-(2-((4-(2-hydroxyethoxy)phenyl)amino)quinazolin-8-yl)phenyl)acrylamide]
[1]
  IC50: 100 to 500 nM

## C=CC(=O)Nc1cccc(-c2cccc3cnc(Nc4ccc(N5CCN(CCO)CC5)cc4F)nc23)c1 [Example C147, N-(3-(2-((2-fluoro-4-(4-(2-hydroxyethyl)piperazin-1-yl)phenyl)amino)quinazolin-8-yl)phenyl)acrylamide]
[2]
  IC50: 100 to 500 nM
[3]
  IC50: 100 to 500 nM
[4]
  IC50: 100 to 500 nM

## C=CC(=O)Nc1cccc(-c2cccc3cnc(Nc4cc(F)c(N5CCN(C)CC5)c(F)c4)nc23)c1 [Example C146, N-(3-(2-((3,5-difluoro-4-(4-methylpiperazin-1-yl)phenyl)amino)quinazolin-8-yl)phenyl)acrylamide]
[5]
  IC50: < 100 nM

## C=CC(=O)Nc1cccc(-c2cccc3cnc(Nc4ccc(N5CCN(CCO)CC5)cc4)nc23)c1 [Example C059, N-(3-(2-((4-(4-(2-hydroxyethyl)piperazin-1-yl)phenyl)amino)quinazolin-8-yl)phenyl)acrylamide]
[4]
  IC50: 100 to 500 nM

## C=CC(=O)Nc1cccc(-c2cccc3cnc(Nc4ccc(N5CCN(CCO)CC5)c(F)c4F)nc23)c1 [Example C151, N-(3-(2-((2,3-difluoro-4-(4-(2-hydroxyethyl)piperazin-1-yl)phenyl)amino)quinazolin-8-yl)phenyl)acrylamide]
[2]
  IC50: 100 to 500 nM
[3]
  IC50: 100 to 500 nM
[4]
  IC50: 100 to 500 nM

## C=CC(=O)Nc1cccc(-c2cccc3cnc(Nc4ccc(N5CCN(C)CC5)cc4F)nc23)c1 [Example C044, N-(3-(2-((2-fluoro-4-(4-methylpiperazin-1-yl)phenyl)amino)quinazolin-8-yl)phenyl)acrylamide]
[2]
  IC50: 100 to 500 nM
[3]
  IC50: 100 to 500 nM

## C=CC(=O)Nc1cccc(-c2cccc3cnc(Nc4ccc(OC5CCN(C)CC5F)cc4)nc23)c1 (centres unmarked) [Example C079, N-(3-(2-((4-((3-fluoro-1-methylpiperidin-4-yl)oxy)phenyl)amino)quinazolin-8-yl)phenyl)acrylamide]
[1]
  IC50: 100 to 500 nM

## C=CC(=O)Nc1cccc(-c2cccc3cnc(Nc4ccc(N5CCN(C(C)=O)CC5)cc4)nc23)c1 [Example C032, N-(3-(2-((4-(4-acetylpiperazin-1-yl)phenyl)amino)quinazolin-8-yl)phenyl)acrylamide]
[1]
  IC50: 100 to 500 nM

## C=CC(=O)Nc1cccc(-c2cccc3cnc(Nc4ccc(N5CCN(C)CC5)c(C(N)=O)c4)nc23)c1 [Example C085, 5-((8-(3-acrylamidophenyl)quinazolin-2-yl)amino)-2-(4-methylpiperazin-1-yl)benzamide]
[1]
  IC50: 100 to 500 nM
